Results published in patent US10307418B2, “Azole pharmaceutical formulations for parenteral administration and methods for preparing and using the same as treatment of diseases sensitive to azole compounds” (Platform Brightworks Two, Ltd., priority 2010, dated 2019).
Converted amounts (≈) assume the structure as drawn. “And” between values parts separate entries of the source, which are not always exact repeats. Identical values can stand only once. Like-named read-outs stand apart in the source and are kept apart here.

Assays:
[1] = cited from earlier work
[2] = Maximum solubility of ITZA and azole analogues in solvents (HPLC); assay type: physicochemical; conditions: for solubility at 30 min: organic solvent or mixture, thermodynamic from solid
Experimental: ITZA and its analogues were dissolved in various solvents incubated at 37° C. for 30 minutes, cooled down to room temperature, centrifuged at 14,000 rpm for 1 min. The supernatant was analyzed using HPLC to determine the maximum solubility of ITZA and its azole analogues.
In a first step the maximum ITZA solubility in various single solvents was determined. To this end, ITZA and its analogs were dissolved in various solvents, incubated at 37° C. for 30 minutes, cooled down to room temperature, centrifuged at 14,000 rpm for 1 min. The supernatant was analyzed using HPLC to determine the maximum solubility of the respective agent.
The solubility of ITZA was determined in several individual vehicles. Briefly, a known amount of ITZA drug, formulated as a powder (Sigma Inc., St Louis, Mo.), was equilibrated in the respective solvent at RT over 1-4 hours. An aliquot was removed, filtered, and prepared for HPLC to determine maximum solubility at room temperature. Based on the ITZA solubility in each vehicle, different solvents were mixed according to the cosolvency principle in an attempt to arrive at an enhanced stable solubility. […] The stock formulation was then diluted with a final diluent, i.e. NS or D5W or DlOW, to yield a stable use-formulation. The desired range of the final use-formulation was between 1 and 5 mg/mL, as it would result in a final volume that could be safely and conveniently infused intravascularly.
An excess of ITZA as a powder was added to a multitude of chemical solvents (Table 1) at RT. Each mixture was intermittently vortexed, placed in a dark environment and checked visually for up to 4 hours for evidence of solubilization. Following centrifugation to remove solid particles, small samples were withdrawn after consecutive time intervals and the ITZA concentration was determined by HPLC as described.

[3] = in vivo; conditions: both, Swiss Webster, mouse, plasma, iv, 5 mg/kg
Experimental: (§1) Swiss Webster mice were used for pharmacokinetic studies of ITZA and its analogs. The dilation of the vein was accomplished by warming up the mice using a heat lamp. […] Mice were allowed to recover and blood samples were obtained through cardiac puncture under general anesthesia with Isoflurane/oxygen by vaporizer at various time points. Plasma was obtained by centrifugation of blood sample at 3,200 rpm for 5 min. at 4° C. Plasma proteins were precipitated by adding acetonitrile (twice the volume of plasma). The mixture was vortexed for 30 seconds and centrifuged for 5 min. at 14,000 rpm. The supernatant was saved and was injected into the HPLC to determine the respective drug concentrations.
(§2) Unless specified, the analogous experiments were performed using POSA as an alternative to ITZA; Swiss Webster mice of both sexes with a body weight of 25-30 g were used for the in vivo pharmacology experiments (Harlan-Sprague-Dawley, Houston, Tex.). The animals were allowed a minimum of 7 days after arrival to accommodate to the new environment and allowed free access to commercial feed and tap water prior to and during the experimentation period. The animals were housed in an Association for the Assessment and Accreditation of Laboratory Animal Care International (AAALAC)-approved facility that meets the requirements of the USDA, NIH, and DHHS.
(§3) The ITZA dose of 5 mg/kg BW was determined to be a suitable test dose that could be administered to the mice as a slow (3-4 min) IV bolus injection without requiring sedation, but could be performed with only minimal physical restraint of the animals in a standard funnel-type cage.
(§4) The ITZA was formulated in the H3 solvent system described above as the preferred solvent to a stock concentration of 4-5 mg/mL and then diluted with NS (ratio 1:1) so the intended dose (5.0 mg/kg BW) could be injected in a tail vein in a total volume of approximately 100 μL. […] No sedative premedication was used for the mice in this experiment to avoid the possible induction of microsomal liver enzymes that could modify ITZA metabolism. Thus, the animals were unanesthetized, being only physically restrained during and immediately following the drug injection.
(§5) Blood samples (0.5-1.0 mL) were drawn through cardiac puncture into heparinized tubes at selected time points prior to the drug infusion (“blank”), and from 5 min to 1 hour after drug injection for determination of ITZA concentrations, and for 5 min to about 7 hrs in the POSA experiment. The mice were exposed to 2% -4% isoflurane for general anesthesia. Blood samples were obtained through cardiac puncture and immediately deposited in heparinized microcentrifuge tubes.

[4] = Plasma pharmacology after IV injection in mice
Experimental: as §1, §2, §3, §4, §5

[5] = Stability of ITZA/POSA in solvent vehicles (HPLC); assay type: physicochemical; parameters: POSA concentration: unit: mg/mL; conditions: for POSA concentration: single determination
[6] = POSA in H3G/5% Dextrose., 24 hr

In the case of CC[C@@H]([C@H](C)O)n1ncn(-c2ccc(N3CCN(c4ccc(OC[C@@H]5CO[C@@](Cn6cncn6)(c6ccc(F)cc6F)C5)cc4)CC3)cc2)c1=O [POSA, posaconazole], the known plasma half-life ([1]; literature (Ref 24, 32, 42, 45)) is listed as 25 to 35 h, the “half-life after oral administration” value ([1]; oral drug, literature) is listed as 15 to 30 h and the solubility at 30 min ([2]; solvent H3D (no benzyl alcohol), solvent H3D (no benzyl alcohol), single determination, read-out: Azole solubility, [Drug] mg/mL) is listed as 33.8 mg/mL (≈ 48.2 mM). For the same compound, the solubility at 30 min ([2]; solvent H3D (no benzyl alcohol), solvent H3D (no benzyl alcohol), read-out: Azole solubility, Average mg/mL) was 35.3 mg/mL (≈ 50.4 mM), the “Azole solubility, [Drug] mg/mL” value ([2]; solvent H3D (no benzyl alcohol), single determination) was 35.08 mg/mL and 37.14 mg/mL and the solubility at 30 min ([2]; solvent H3G (no benzyl alcohol), solvent H3G (no benzyl alcohol), single determination, read-out: Azole solubility, [Drug] mg/mL) was 30.6 mg/mL (≈ 43.7 mM). For the same compound, the solubility at 30 min ([2]; solvent H3G (no benzyl alcohol), solvent H3G (no benzyl alcohol), read-out: Azole solubility, Average mg/mL) was 32.2 mg/mL (≈ 45.9 mM), the “Azole solubility, [Drug] mg/mL” value ([2]; solvent H3G (no benzyl alcohol), single determination) was 33.86 mg/mL and 32.04 mg/mL and the half-life [3] was 6 to 7 h. For the same compound, the “tolerability of IV injection (in words)” value ([4]; 5.0 mg/kg BW, slow injection over 3-4 min) was “well accepted”, the “apparent in vivo half-life” value ([4]; 5 mg/kg IV) was 6 to 7 h and the “time plasma concentrations remain in the fungi-toxic range” value ([4]; IV dose of 5 mg/kg) was “in excess of one hour”. The “peak concentration (plasma)” value ([4]; IV injection of 5 mg/kg over 4 min) was 3.2 to 3.3 µg/mL, the “% of 0 hr” value ([5]; POSA in H3G, 0 hr) was 100% and the “average” value ([5]; POSA in H3G, 0 hr) was 3.70 mg/mL. The “POSA concentration” value ([5]; POSA in H3G, 0 hr) was 3.76 and 3.69 and 3.66, the “% of 0 hr” value ([5]; POSA in H3G, 2 hr) was 102% and the “average” value ([5]; POSA in H3G, 2 hr) was 3.78 mg/mL. The “POSA concentration” value ([5]; POSA in H3G, 2 hr) was 3.93 and 3.73 and 3.67, the “% of 0 hr” value ([5]; POSA in H3G, 4 hr) was 114% and the “average” value ([5]; POSA in H3G, 4 hr) was 4.23 mg/mL. The “POSA concentration” value ([5]; POSA in H3G, 4 hr) was 3.98 and 4.33 and 4.37, the “% of 0 hr” value ([5]; POSA in H3G, 6 hr) was 114% and the “average” value ([5]; POSA in H3G, 6 hr) was 4.23 mg/mL. The “POSA concentration” value ([5]; POSA in H3G, 6 hr) was 3.98 and 4.33 and 4.37, the “% of 0 hr” value ([5]; POSA in H3G, 8 hr) was 97% and the “average” value ([5]; POSA in H3G, 8 hr) was 3.57 mg/mL. The “POSA concentration” value ([5]; POSA in H3G, 8 hr) was 3.68 and 3.47 and 3.57, the “% of 0 hr” value ([5]; POSA in H3G, 24 hr) was 99% and the “average” value ([5]; POSA in H3G, 24 hr) was 3.65 mg/mL. The “POSA concentration” value ([5]; POSA in H3G, 24 hr) was 3.73 and 3.52 and 3.70, the “% of 0 hr” value ([5]; POSA in H3G/5% Dextrose., 0 hr) was 100% and the “POSA concentration” value ([5]; POSA in H3G/5% Dextrose., 0 hr) was 1.76 and 1.68. For the same compound, the “% of 0 hr” value ([5]; POSA in H3G/5% Dextrose., 2 hr) was 109%, the “POSA concentration” value ([5]; POSA in H3G/5% Dextrose., 2 hr) was 1.84 and 1.81 and 2.02 and the “% of 0 hr” value ([5]; POSA in H3G/5% Dextrose., 4 hr) was 113%. For the same compound, the “POSA concentration” value ([5]; POSA in H3G/5% Dextrose., 4 hr) was 1.92 and 1.91 and 2.03, the “% of 0 hr” value ([5]; POSA in H3G/5% Dextrose., 6 hr) was 109% and the “POSA concentration” value ([5]; POSA in H3G/5% Dextrose., 6 hr) was 1.75 and 1.93 and 2.01. For the same compound, the “% of 0 hr” value ([5]; POSA in H3G/5% Dextrose., 8 hr) was 106%, the “POSA concentration” value ([5]; POSA in H3G/5% Dextrose., 8 hr) was 1.71 and 1.89 and 1.92 and the “% of 0 hr” value [5, 6] was 105%. The “POSA concentration” value [5, 6] was 1.78 and 1.80 and 1.87, the “% of 0 hr” value ([5]; POSA in H3d, 0 hr) was 100% and the “average” value ([5]; POSA in H3d, 0 hr) was 3.78 mg/mL. For the same compound, the “POSA concentration” value ([5]; POSA in H3d, 0 hr) was 3.82 and 3.75 and 3.78, the “% of 0 hr” value ([5]; POSA in H3d, 2 hr) was 100% and the “average” value ([5]; POSA in H3d, 2 hr) was 3.79 mg/mL. The “POSA concentration” value ([5]; POSA in H3d, 2 hr) was 3.67 and 3.81 and 3.89, the “% of 0 hr” value ([5]; POSA in H3d, 4 hr) was 112% and the “average” value ([5]; POSA in H3d, 4 hr) was 4.24 mg/mL. For the same compound, the “POSA concentration” value ([5]; POSA in H3d, 4 hr) was 4.00 and 4.15 and 4.56, the “% of 0 hr” value ([5]; POSA in H3d, 6 hr) was 118% and the “average” value ([5]; POSA in H3d, 6 hr) was 4.45 mg/mL. The “POSA concentration” value ([5]; POSA in H3d, 6 hr) was 4.20 and 4.32 and 4.82, the “% of 0 hr” value ([5]; POSA in H3d, 8 hr) was 106% and the “average” value ([5]; POSA in H3d, 8 hr) was 3.99 mg/mL. The “POSA concentration” value ([5]; POSA in H3d, 8 hr) was 4.18 and 3.77 and 4.03, the “% of 0 hr” value ([5]; POSA in H3d, 24 hr) was 101% and the “average” value ([5]; POSA in H3d, 24 hr) was 3.83 mg/mL. The “POSA concentration” value ([5]; POSA in H3d, 24 hr) was 3.81 and 3.75 and 3.92, the “% of 0 hr” value ([5]; POSA in H3d/5% Dextrose, 0 hr) was 100% and the “POSA concentration” value ([5]; POSA in H3d/5% Dextrose, 0 hr) was 1.75 and 1.77 and 1.81. For the same compound, the “% of 0 hr” value ([5]; POSA in H3d/5% Dextrose, 2 hr) was 100%, the “POSA concentration” value ([5]; POSA in H3d/5% Dextrose, 2 hr) was 1.77 and 1.74 and 1.83 and the “% of 0 hr” value ([5]; POSA in H3d/5% Dextrose, 4 hr) was 111%. The “POSA concentration” value ([5]; POSA in H3d/5% Dextrose, 4 hr) was 1.88 and 1.81 and 2.20, the “% of 0 hr” value ([5]; POSA in H3d/5% Dextrose, 6 hr) was 109% and the “POSA concentration” value ([5]; POSA in H3d/5% Dextrose, 6 hr) was 1.95 and 1.93 and 1.94. For the same compound, the “% of 0 hr” value ([5]; POSA in H3d/5% Dextrose, 8 hr) was 102%, the “POSA concentration” value ([5]; POSA in H3d/5% Dextrose, 8 hr) was 1.86 and 1.68 and 1.90 and the “% of 0 hr” value ([5]; POSA in H3d/5% Dextrose, 24 hr) was 103%. The “POSA concentration” value ([5]; POSA in H3d/5% Dextrose, 24 hr) was 1.78 and 1.79 and 1.93.
